Measurements: US20230414626A1, “INDUCTION OF FERROPTOSIS FOR CANCER THERAPY” (Memorial Sloan Kettering Cancer Center, priority 2020, published 2023)

Tests used:
[1] = system: SREBF1-knockout cells; test: Cell death in SREBF1-knockout cells; type: cell-based, human; conditions: SREBF1-knockout MDA-MB-453 and BT474 cells; Torin 1 μM; GDC-0941 2 μM; MK-2206 2 μM; CCI-779 0.5 μM
Method: FIG. 9 A-F. SREBP1 protects cells from ferroptosis. (A) MCF7 cells were treated as indicated. RSL3, 5 μM; CCI-779, 0.5 μM. Cell lysates were collected 24 h after treatment for Western blot detecting […], total S6K, SREBP1(P) and SREBP1(m). (B) Cells were pretreated with 5 μM Fatostatin A overnight and treated as indicated. RSL3, 0.5 μM for BT474 cells, 1 μM for MDA-MB-453 and 5 μM for MCF7 cells; Fer-1, 1 μM. (C) Efficiency of SREBF1 Knockout in BT474, MDA-MB-453, and MCF7 cells was monitored by western blot. (D) MCF7 cells were treated as indicated. RSL3, 5 μM; Fer-1, 1 μM. (E) Cells were treated as indicated. RSL3, 1 μM for MDA-MB-453 cells and 0.5 μM for BT474 cells; Fer-1, 1 μM; Torin, 1 μM; GDC-0941, 2 μM; MK-2206, 2 μM; CCI-779, 0.5 μM. (F) SREBP1m was overexpressed in MCF7, MDA-MB-453 and A549 cells and determined by western blot. Cells were treated as indicated. RSL3, 5 μM for MCF7 cells, 0.5 μM for MDA-MB-453 cells and 0.25 μM for A549 cells; CCI-779, 0.5 μM.
Cells were seeded in plates at appropriate cell density and incubated overnight at 37° C. containing 5% C02, and then subjected to treatments as described in individual experiments. Cells were stained with hoechst 33342 (0.1 μg/ml) to monitor total cell number, and with Sytox Green (5 nM) to monitor cell death. Culture plates were read by Cytation 5 at indicated time points. Percentage of cell death was calculated as Sytox Green-positive cell number over total cell number. For 3D spheroids, cell viability was determined a commercially available cell viability assay (Promega, Madison, WI, USA) following the manufacturer's instructions. Viability was calculated by normalizing ATP levels of samples to that of negative controls (spheroids in normal full media without treatment).
Keap1, NRF2 and SREBP1 depleted cells were generated with a CRISPR/Cas9-mediated knockout system. sgRNA sequences were cloned into LentiCRISPRV2. SCD1 depleted cells were generated with CRISPR/Cas9 mediated knockout system, using stable Cas9 expression cells and sanger CRISPR clone. […]

[2] = system: NRF2; test: Western blot of NRF2; type: cell-based, human; conditions: BT474 cells, 8 h; RSL3 0.5 μM; Torin 1 μM
Method: FIG. 3 A-E. NRF2 is not the major mediator of the ferroptosis-suppressing activity of mTORC1. (A) BT474 cells were treated as indicated for 8 h. RSL3, 0.5 μM; Torin, 1 μM. Western blot was performed to measure […], total S6K and NRF2. (B) NRF2 was depleted by CRISPR/Cas9 technology in HT1080 cells. NRF2 level was measured by western blot. (C) Control or NRF2-depleted cells were treated as indicated. Erastin, 0.5 μM; RSL3, 25 nM. (D) HepG2 cells with or without NRF2 depletion were treated with cysteine starvation with or without CCI-779 (0.5 μM) as indicated. Sytox Green were added after 48 h for cell death staining (scale bar, 100 m). (E) PC-3 cells with or without NRF2 depletion were treated with cysteine starvation with or without CCI-779 (0.5 μM) as indicated. Sytox Green were added after 48 h for cell death staining (scale bar, 100 m).
Cell lysates were resolved on SDS-PAGE gels and transferred to a nitrocellulose membranes. The membranes were incubated in 5% skim milk for 1 hour at room temperature and then incubated with primary antibodies diluted in blocking buffer at 4° C. overnight. […]

Structure (SMILES)	further enhancement of RSL3-induced ferroptosis [1]	RSL3-induced NRF2 accumulation [2]
CS(=O)(=O)N1CCN(Cc2cc3nc(-c4cccc5[nH]ncc45)nc(N4CCOCC4)c3s2)CC1 [GDC-0941]	failed to further enhance RSL3-induced ferroptosis	
NC1(c2ccc(-c3nc4ccn5c(=O)[nH]nc5c4cc3-c3ccccc3)cc2)CCC1 [MK-2206]	failed to further enhance RSL3-induced ferroptosis	
CO[C@H]1C[C@@H]2CC[C@@H](C)[C@@](O)(O2)C(=O)C(=O)N2CCCC[C@H]2C(=O)O[C@H]([C@H](C)C[C@@H]2CC[C@@H](OC(=O)C(C)(CO)CO)[C@H](OC)C2)CC(=O)[C@H](C)/C=C(\C)[C@@H](O)[C@@H](OC)C(=O)[C@H](C)C[C@H](C)/C=C/C=C/C=C/1C [CCI-779, Temsirolimus]	failed to further enhance RSL3-induced ferroptosis	
CCC(=O)N1CCN(c2ccc(-n3c(=O)ccc4cnc5ccc(-c6cnc7ccccc7c6)cc5c43)cc2C(F)(F)F)CC1 [Torin]	failed to further enhance RSL3-induced ferroptosis	ablated
